Some test systems named below: 786-0 renal; A498 renal; ACHN renal; BT-549 breast; CAKI-1 renal; DU-145 prostate; HCT-15 colon; HT29 colon; MDA-MB-231 breast; MDA-MB-435; NCI-H226 lung; NCI-H460 lung; NCI-H522 lung; OVCAR-8 ovarian; SK-MEL-28 melanoma; SK-OV-3 ovarian; SN12C renal; SR leukemia; T-47D breast; UACC-257 melanoma.
Common to all, as to assay: NCI anticancer screen, dose series, 48 h

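Method: 48-hour compound exposure of cells in 96-well plates, five concentrations, linear interpolation of endpoints. Definition used: TGI = concentration required for complete inhibition of growth.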

`CC(C)=NNc1ncnc2nc[nH]c12`: the TGI in the test with 786-0 renal is over 100 µM; in the test with A498 renal it was 54.2 µM; with ACHN renal it was over 100 µM; in the test on BT-549 breast, over 100 µM; in the test on CAKI-1 renal it was over 100 µM; in the test on DU-145 prostate, 67.8 µM. Also, the TGI was over 100 µM in the test with HCT-15 colon; over 100 µM with HT29 colon; over 94.3 µM with MDA-MB-231 breast; over 100 µM in the test on MDA-MB-435; 97 µM in the test on NCI-H226 lung; 38.9 µM in the test with NCI-H460 lung. Moreover, the TGI in the test on NCI-H522 lung is 32.2 µM; in the test with OVCAR-8 ovarian it was over 100 µM; with SK-MEL-28 melanoma it was over 100 µM; with SK-OV-3 ovarian it was over 58 µM; in the test with SN12C renal, over 100 µM; in the test on SR leukemia, over 60.8 µM. Further, the TGI was over 79.1 µM in the test with T-47D breast and over 100 µM in the test with UACC-257 melanoma.
Turning to `Cn1cnnc1SC(F)(F)c1nc2ccccc2o1`, the TGI in the test with 786-0 renal, in the test on A498 renal, with ACHN renal, in the test on BT-549 breast, in the test with CAKI-1 renal and in the test on DU-145 prostate was over 100 µM each time. Also, the TGI in the test on HCT-15 colon, in the test with HT29 colon, in the test with MDA-MB-231 breast, in the test with MDA-MB-435, with NCI-H226 lung and in the test on NCI-H460 lung was over 100 µM throughout. Also, the TGI in the test with NCI-H522 lung, with OVCAR-8 ovarian, in the test on SK-MEL-28 melanoma, in the test with SK-OV-3 ovarian, with SN12C renal and in the test with SR leukemia was over 100 µM each time. For the same compound, the TGI in the test with T-47D breast and in the test on UACC-257 melanoma was over 100 µM each time.
With `COC(=O)[C@]1(C)[C@H]2C[C@H]3O[C@H]4[C@H](O)[C@@H](O)OC(CC(O)C(C5=CC(=O)OC5)C(C5=CC(=O)OC5)C(O)CC56CCCCC7[C@@H](C)[C@H](C[C@H]8[C@](C)(C(=O)OC)[C@H](O)CC[C@]78C)O[C@H]([C@@H](O)[C@H](O)O5)[C@H]6O)(CCCCC([C@@H]3C)[C@]2(C)CC[C@@H]1O)[C@H]4O` (some centres undefined), the TGI came to 0.225 µM in the test with 786-0 renal; 0.737 µM in the test with A498 renal; 0.305 µM in the test on BT-549 breast; 0.849 µM with CAKI-1 renal; 0.219 µM in the test on DU-145 prostate; 1.11 µM in the test on HCT-15 colon. In addition, the TGI in the test on HT29 colon amounted to 0.825 µM; in the test on MDA-MB-231 breast it was 1.89 µM; in the test on MDA-MB-435 it was 1.1 µM; in the test on NCI-H226 lung it was 5.02 µM; with NCI-H460 lung, 0.014 µM; in the test with NCI-H522 lung, 0.0558 µM. Also, the TGI in the test with OVCAR-8 ovarian was found to be 1.2 µM; with SK-MEL-28 melanoma, 10.4 µM; in the test on SK-OV-3 ovarian, 0.735 µM; in the test on SN12C renal it was 0.159 µM; with SR leukemia, 0.253 µM; in the test with T-47D breast, 6.62 µM. This compound displayed a TGI in the test with UACC-257 melanoma of 1.01 µM.
On to `COc1ccc2c(C(=O)c3c(C)n(CCN4CCOCC4)c4ccccc34)cccc2c1`, for which the TGI in the test with 786-0 renal is over 100 µM; with A498 renal it was over 100 µM; with ACHN renal it was over 100 µM; in the test on BT-549 breast, 98.1 µM; in the test with CAKI-1 renal, over 100 µM; in the test on DU-145 prostate it was over 100 µM. Moreover, the TGI is over 100 µM in the test with HCT-15 colon; 64 µM with HT29 colon; 80.2 µM in the test on MDA-MB-231 breast; 22.8 µM in the test with MDA-MB-435; over 100 µM in the test with NCI-H226 lung; over 100 µM with NCI-H460 lung. Further, the TGI in the test on NCI-H522 lung was 50.2 µM; in the test with OVCAR-8 ovarian it was 59.4 µM; in the test on SK-MEL-28 melanoma, over 100 µM; in the test with SK-OV-3 ovarian, over 100 µM; in the test with SN12C renal, over 100 µM; with SR leukemia, over 100 µM. Also, the TGI was over 100 µM in the test on T-47D breast and 97.9 µM in the test with UACC-257 melanoma.
`Cc1cc(/N=C/c2ccc(Cl)cc2)n(-c2ccccc2)n1`: the TGI in the test with 786-0 renal is over 100 µM; in the test on A498 renal, 79.7 µM; in the test on ACHN renal it was over 100 µM; with BT-549 breast, over 100 µM; with CAKI-1 renal, over 100 µM; in the test with DU-145 prostate, over 100 µM. The TGI with HCT-15 colon, in the test with HT29 colon, in the test with MDA-MB-231 breast, in the test on MDA-MB-435, in the test with NCI-H226 lung and in the test on NCI-H460 lung was over 100 µM throughout. Moreover, the TGI with NCI-H522 lung, in the test on OVCAR-8 ovarian, in the test with SK-MEL-28 melanoma, with SK-OV-3 ovarian, with SN12C renal and in the test with SR leukemia was over 100 µM in each case. For the same compound, the TGI in the test with T-47D breast was 79.4 µM; with UACC-257 melanoma it was over 100 µM.
Take `COc1cccc(Nc2nc(NS(=O)(=O)c3cc(C)c(Cl)cc3S)n[nH]2)c1`: the TGI with 786-0 renal, in the test on A498 renal, in the test with ACHN renal, with BT-549 breast, with CAKI-1 renal and in the test on DU-145 prostate was over 100 µM throughout. In addition, the TGI in the test on HCT-15 colon, with HT29 colon, in the test with MDA-MB-231 breast, with MDA-MB-435, with NCI-H226 lung and in the test on NCI-H460 lung was over 100 µM each time. The TGI in the test on NCI-H522 lung, with OVCAR-8 ovarian, in the test on SK-MEL-28 melanoma, with SK-OV-3 ovarian, in the test with SN12C renal and in the test on SR leukemia was over 100 µM throughout. Also, the TGI in the test with T-47D breast and in the test with UACC-257 melanoma was over 100 µM in each case.
Regarding `COc1cccc(N2C(=O)C3CC(CC(C)(C)C)c4c([nH]c5ccccc45)C3C2=O)c1` (centres undefined), the TGI in the test with 786-0 renal, with A498 renal, in the test on ACHN renal, in the test with BT-549 breast, in the test with CAKI-1 renal and in the test on DU-145 prostate was over 10 µM throughout. In addition, the TGI with HCT-15 colon, in the test on HT29 colon, in the test with MDA-MB-231 breast, in the test with MDA-MB-435, in the test with NCI-H226 lung and with NCI-H460 lung was over 10 µM throughout. Also, the TGI is over 10 µM with NCI-H522 lung; over 10 µM in the test with OVCAR-8 ovarian; over 10 µM in the test with SK-MEL-28 melanoma; over 10 µM with SK-OV-3 ovarian; over 10 µM in the test with SN12C renal; 4.2 µM in the test with SR leukemia. Moreover, the TGI in the test with T-47D breast and in the test with UACC-257 melanoma was over 10 µM in each case.

The record behind these values is PubChem BioAssay (NCI).
